Experimental data as given in patent US10131663B2, “Chemical compounds” (AstraZeneca AB, priority 2016, dated 2018).
Converted amounts (≈) assume the structure as drawn.

How the values were obtained:
[1] = target: estrogen receptor (ERα) in CAMA-1 cells (Homo sapiens (Human), UniProt P03372); assay: Western blotting assay, ER down-regulation in CAMA-1; assay type: cell-based; details: 100 nM compound, 48 h, normalised to 100 nM fulvestrant
Method: Cells were incubated with compounds (100 nM) or vehicle control (0.1% DMSO) for 48 h at 37° C., 5% CO2 before washing once with PBS and lysing with 80 μl lysis buffer (25 mM Tris/HCl, 3 mM EDTA, 3 mM EGTA, 50 mM NaF, 2 mM sodium orthovanadate, 0.27 M sucrose, 10 mM β-glycerophosphate, 5 mM sodium pyrophosphate, 0.5% TritonX-100, pH 6.8) on ice.
Samples were boiled for 10 min at 95° C. and then frozen at −20° C. until ready for use.
The blot was stained with Ponceau S (P7170, Sigma) and cut according to appropriate molecular weight markers.
Membranes were blocked for 1 hour at room temp in 5% Marvel (w/v) in phosphate-buffered saline containing 0.05% Tween™ 20 (PBS/Tween). Blots were then incubated with anti-ERα (SP1) rabbit monoclonal antibody (Thermofisher) diluted 1:1000 at 4° C. overnight (with gentle shaking) followed by several washes with PBS/Tween. […] All antibodies were made up in 5% Marvel (w/v) in PBS/Tween.
Down-regulation of the ERα receptor was normalised to the vehicle control (0% down-regulation) and the 100 nM fulvestrant control (100% down-regulation) run within the same gel.

[2] = target: recombinant human Estrogen Receptor alpha ligand binding domain (ER alpha-LBD (GST)) (Homo sapiens (Human), UniProt P03372); assay: ERα binding assay (LanthaScreen TR-FRET competition); details: TR-FRET, displacement of Fluormone ES2
Chain of recombinant human Estrogen Receptor alpha ligand binding domain (ER alpha-LBD (GST)) (P03372 307-554): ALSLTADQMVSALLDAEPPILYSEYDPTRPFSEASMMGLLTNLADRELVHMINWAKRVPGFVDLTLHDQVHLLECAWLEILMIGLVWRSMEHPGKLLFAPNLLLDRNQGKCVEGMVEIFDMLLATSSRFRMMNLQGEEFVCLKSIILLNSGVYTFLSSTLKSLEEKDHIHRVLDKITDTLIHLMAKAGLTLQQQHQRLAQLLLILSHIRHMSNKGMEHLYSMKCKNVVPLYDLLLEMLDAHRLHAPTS
How it was run: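 Competition binding to GST-tagged human ERα ligand-binding domain, read by LanthaScreen TR-FRET: Tb-anti-GST antibody labels the receptor and compounds displace a fluorescent tracer, lowering the signal. IC50 was taken from dose-response curve fitting.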

[3] = Human hepatocyte assay (metabolic stability); assay type: in vitro ADME; details: human hepatocytes
Method: The metabolic stability of compounds in human hepatocytes was assessed using the following protocol: • 1. Prepare 10 mM stock solutions of compound and control compounds in appropriate solvent (DMSO). Place incubation medium (L-15 Medium) in a 37° C. water bath, and allow warming for at least 15 minutes prior to use. • 2. Add 80 μL of acetonitrile to each well of the 96-well deep well plate (quenching plate). • 3. In a new 96-well plate, dilute the 10 mM test compounds and the control compounds to 100 μM by combining 198 μL of acetonitrile and 2 μL of 10 mM stock. • 4. Remove a vial of cryopreserved (less than −150° C.) human hepatocytes (LiverPool™ 10 Donor Human hepatocytes obtained from Celsis IVT. Chicago, Ill. (Product No. S01205)) from storage, ensuring that vials remain at cryogenic temperatures until thawing process ensues. As quickly as possible, thaw the cells by placing the vial in a 37° C. water bath and gently shaking the vials. Vials should remain in water bath until all ice crystals have dissolved and are no longer visible. After thawing is complete, spray vial with 70% ethanol, transfer the vial to a bio-safety cabinet. • 5. Open the vial and pour the contents into the 50 mL conical tube containing thawing medium. Place the 50 mL conical tube into a centrifuge and spin at 100 g for 10 minutes. […] Using Cellometer® Vision, count cells and determine the viable cell density. Cells with poor viability (<80% viability) are not acceptable for use. […] Transfer 247.5 μL of hepatocytes into each well of a 96-well cell culture plate. Place the plate on Eppendorf Thermomixer Comfort plate shaker to allow the hepatocytes to warm for 10 minutes. • 8. Add 2.5 μL of 100 μM test compound or control compounds into an incubation well containing cells, mix to achieve a homogenous suspension at 0.5 min, which when achieved, will define the 0.5 min time point. At the 0.5 min time, transfer 20 μL of incubated mixture to wells in a “Quenching plate” followed by vortexing. • 9. Incubate the plate at 37° C. at 900 rpm on an Eppendorf Thermomixer Comfort plate shaker. […] Centrifuge the quenching plates for 20 minutes at 4,000 rpm. 4 different compounds are pooled into one cassette and used for LC/MS/MS analysis.
All calculations were carried out using Microsoft Excel. Peak areas were determined from extracted ion chromatograms. In vitro intrinsic clearance (in vitro Clint, in […]) of parent compound was determined by regression analysis of the Ln percent parent disappearance vs. time curve.
V=incubation volume (0.25 mL);
N=number of hepatocytes per well (0.25×10^6 cells).

[4] = Human Caco-2 passive permeability A to B Papp; assay type: in vitro ADME; details: apical pH 6.5, basolateral pH 7.4, efflux inhibitor cocktail
Method: An automated assay was used to determine the passive permeability of compounds in Caco-2 cell monolayers carried out over 2 hours with an apical pH of 6.5 and basolateral pH of 7.4. The Caco-2 AB inhibition assay is carried out with chemical inhibition of the three major efflux transporters ABCB1 (P-gp), ABCG2 (BCRP) and ABCC2 (MRP2) in Caco-2 cells. Incubation of both apical and basolateral is carried out with a cocktail of inhibitors (50 μM quinidine, 20 μM sulfasalazine and 100 μM benzbromarone). Samples were analyzed through LC/MS/MS to estimate the apparent permeability coefficients (Papp) of compounds across Caco-2 cell monolayers and results are quoted in units of ×10^−6 cm/s.

[5] = Thermodynamic solubility (shake-flask); assay type: physicochemical; details: aqueous phosphate buffer, 25 °C, pH 7.4, aqueous buffer, thermodynamic from solid, aqueous phosphate buffer pH 7.4, 24 hours
How it was run: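 Shake-flask method starting from 10 mM DMSO stocks, which are dried before use. Residue equilibrated 24 h at 25° C. in aqueous phosphate buffer, pH 7.4. Dissolved fraction separated and quantified by UPLC/MS/MS, with QC samples in each run.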

Chain of estrogen receptor (ERα) in CAMA-1 cells (P03372 whole entry): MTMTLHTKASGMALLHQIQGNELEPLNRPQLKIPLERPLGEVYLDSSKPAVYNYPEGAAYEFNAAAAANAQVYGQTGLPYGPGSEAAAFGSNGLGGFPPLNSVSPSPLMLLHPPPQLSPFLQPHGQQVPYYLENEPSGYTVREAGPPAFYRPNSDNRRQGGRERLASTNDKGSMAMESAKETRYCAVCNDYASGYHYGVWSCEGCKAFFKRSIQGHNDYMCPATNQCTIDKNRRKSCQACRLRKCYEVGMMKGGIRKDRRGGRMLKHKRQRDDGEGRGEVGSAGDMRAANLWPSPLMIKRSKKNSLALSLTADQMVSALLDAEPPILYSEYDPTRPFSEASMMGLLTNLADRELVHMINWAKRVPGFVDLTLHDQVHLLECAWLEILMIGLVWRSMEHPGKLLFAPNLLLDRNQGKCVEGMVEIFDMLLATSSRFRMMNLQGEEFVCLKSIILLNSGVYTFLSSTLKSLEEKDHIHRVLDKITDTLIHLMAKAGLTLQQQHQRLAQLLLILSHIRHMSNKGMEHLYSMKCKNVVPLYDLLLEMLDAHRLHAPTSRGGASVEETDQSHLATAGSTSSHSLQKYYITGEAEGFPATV

Compound	CAMA1 Western % ER deg vs Fv [1] [%]	IC50 [2] [nM]	hepatocyte CLint at 1 µM [3] [µL/min/1e6 cells]	Papp at 2 h [4] [×10⁻⁶ cm/s]	solubility at 24 h [5] [µM]
COc1cc(NC2CN(CCCF)C2)ccc1[C@@H]1c2ccc3[nH]ncc3c2C[C@@H](C)N1CC(F)F [Example 21, N-(4-((6S,8R)-7-(2,2-difluoroethyl)-8-methyl-6,7,8,9-tetrahydro-3H-pyrazolo[4,3-f]isoquinolin-6-yl)-3-methoxyphenyl)-1-(3-fluoropropyl)azetidin-3-amine]	101	2.1	6	14.1	634 (≈ 309 µg/mL)
C[C@@H]1Cc2c(ccc3[nH]ncc23)[C@@H](c2ccc(NC3CN(CCCF)C3)cn2)N1CC1(F)CC1 [Example 3, 6-((6S,8R)-7-((1-fluorocyclopropyl)methyl)-8-methyl-6,7,8,9-tetrahydro-3H-pyrazolo[4,3-f]isoquinolin-6-yl)-N-(1-(3-fluoropropyl)azetidin-3-yl)pyridin-3-amine]	102	6.5	5		> 941
C[C@@H]1Cc2c(ccc3[nH]nc(F)c23)[C@@H](c2ncc(NC3CN(CCCF)C3)cc2F)N1CC(F)(F)F [Example 33, 5-Fluoro-6-((6S,8R)-1-fluoro-8-methyl-7-(2,2,2-trifluoroethyl)-6,7,8,9-tetrahydro-3H-pyrazolo[4,3-f]isoquinolin-6-yl)-N-(1-(3-fluoropropyl)azetidin-3-yl)pyridin-3-amine]	102	1.4			466 (≈ 239 µg/mL)
C[C@@H]1Cc2c(ccc3[nH]ncc23)[C@@H](c2ccc(NC3CN(CCCF)C3)cc2)N1CC(F)F [Example 48, N-(4-((6R,8R)-7-(2,2-difluoroethyl)-8-methyl-6,7,8,9-tetrahydro-3H-pyrazolo[4,3-f]isoquinolin-6-yl)phenyl)-1-(3-fluoropropyl)azetidin-3-amine]	94	1.5	4		582 (≈ 266 µg/mL)
C[C@@H]1Cc2c(ccc3[nH]ncc23)[C@@H](c2ncc(NC3CN(CCCF)C3)cc2F)N1CC(F)(F)F [Example 30, 5-fluoro-N-(1-(3-fluoropropyl)azetidin-3-yl)-6-((6S,8R)-8-methyl-7-(2,2,2-trifluoroethyl)-6,7,8,9-tetrahydro-3H-pyrazolo[4,3-f]isoquinolin-6-yl)pyridin-3-amine]	98	1.8			754 (≈ 373 µg/mL)
C[C@@H]1Cc2c(ccc3[nH]ncc23)[C@@H](c2ncc(NC3CN(CCCF)C3)cc2F)N1CC1(F)CC1 [Example 18, 5-fluoro-6-((6S,8R)-7-((1-fluorocyclopropyl)methyl)-8-methyl-6,7,8,9-tetrahydro-3H-pyrazolo[4,3-f]isoquinolin-6-yl)-N-(1-(3-fluoropropyl)azetidin-3-yl)pyridin-3-amine]	95	29	3		910 (≈ 441 µg/mL)
C[C@@H]1Cc2c(ccc3[nH]ncc23)[C@@H](c2ccc(NC3CN(CCCF)C3)cn2)N1CC(F)(F)CO [Example 16, 2,2-difluoro-3-((6S,8R)-6-(5-((1-(3-fluoropropyl)azetidin-3-yl)amino)pyridin-2-yl)-8-methyl-3,6,8,9-tetrahydro-7H-pyrazolo[4,3-f]isoquinolin-7-yl)propan-1-ol]	105	6.9		1.7	982 (≈ 480 µg/mL)
C[C@@H]1Cc2c(ccc3[nH]ncc23)[C@@H](c2ccc(NC3CN(CCCF)C3)cc2)N1CC(F)(F)F [Example 27, 1-(3-Fluoropropyl)-N-(4-((6R,8R)-8-methyl-7-(2,2,2-trifluoroethyl)-6,7,8,9-tetrahydro-3H-pyrazolo[4,3-f]isoquinolin-6-yl)phenyl)azetidin-3-amine]	108	0.81			229 (≈ 109 µg/mL)
COCC(F)(F)CN1[C@H](c2ccc(NC3CN(CCCF)C3)cc2OC)c2ccc3[nH]ncc3c2C[C@H]1C [Example 1, N-(4-((6S,8R)-7-(2,2-difluoro-3-methoxypropyl)-8-methyl-6,7,8,9-tetrahydro-3H-pyrazolo[4,3-f]isoquinolin-6-yl)-3-methoxyphenyl)-1-(3-fluoropropyl)azetidin-3-amine]	92	3.7	11		379 (≈ 201 µg/mL)
COCC(F)(F)CN1[C@H](c2ccc(NC3CN(CCCF)C3)cn2)c2ccc3[nH]ncc3c2C[C@H]1C [Example 2, 6-((6S,8R)-7-(2,2-difluoro-3-methoxypropyl)-8-methyl-6,7,8,9-tetrahydro-3H-pyrazolo[4,3-f]isoquinolin-6-yl)-N-(1-(3-fluoropropyl)azetidin-3-yl)pyridin-3-amine]	95	2.8	6		217 (≈ 109 µg/mL)
C[C@@H]1Cc2c(ccc3[nH]ncc23)[C@@H](c2ccc(NC3CN(CCCF)C3)cn2)N1CC(F)(F)F [Example 17, N-(1-(3-fluoropropyl)azetidin-3-yl)-6-((6S,8R)-8-methyl-7-(2,2,2-trifluoroethyl)-6,7,8,9-tetrahydro-3H-pyrazolo[4,3-f]isoquinolin-6-yl)pyridin-3-amine]	96		6	13.3	833 (≈ 397 µg/mL)
COc1cc(NC2CN(CCCF)C2)ccc1[C@@H]1c2ccc3[nH]ncc3c2C[C@@H](C)N1CC(C)(C)F [Example 64, N-(4-((6S,8R)-7-(2-fluoro-2-methylpropyl)-8-methyl-6,7,8,9-tetrahydro-3H-pyrazolo[4,3-f]isoquinolin-6-yl)-3-methoxyphenyl)-1-(3-fluoropropyl)azetidin-3-amine]	89	6.1			474 (≈ 236 µg/mL)
COc1cc(NC2CN(CCCF)C2)ccc1[C@@H]1c2ccc3[nH]ncc3c2C[C@@H](C)N1CC(C)(F)F [Example 19, N-(4-((6S,8R)-7-(2,2-difluoropropyl)-8-methyl-6,7,8,9-tetrahydro-3H-pyrazolo[4,3-f]isoquinolin-6-yl)-3-methoxyphenyl)-1-(3-fluoropropyl)azetidin-3-amine]	94	2.6	5		152 (≈ 76.2 µg/mL)
